# Test results: patent US20130131075A1, “NEW COMPOUNDS” (Boehringer Ingelheim International GmbH, priority 2009, published 2013)
# Biological target: T1, cynomolgus BK1-receptor (Macaca fascicularis, UniProt Q3BCU0)
# T1 construct: expressed in transfected cells; host or cells: CHO cells (homogenate)
# T1 sequence (Q3BCU0 1-352): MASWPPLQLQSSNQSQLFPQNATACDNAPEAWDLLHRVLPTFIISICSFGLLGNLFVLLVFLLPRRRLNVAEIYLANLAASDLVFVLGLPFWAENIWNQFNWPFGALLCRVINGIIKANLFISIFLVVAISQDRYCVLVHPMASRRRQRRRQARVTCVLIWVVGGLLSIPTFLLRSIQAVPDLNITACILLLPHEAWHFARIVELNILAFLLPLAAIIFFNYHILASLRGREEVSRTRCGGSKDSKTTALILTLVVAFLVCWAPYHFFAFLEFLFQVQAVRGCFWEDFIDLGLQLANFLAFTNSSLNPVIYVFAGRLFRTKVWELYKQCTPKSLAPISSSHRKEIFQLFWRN
# Assay: cynoBK1-receptor binding assay
# Conditions: CHO cells expressing cynomolgus BK1-receptor, radioligand kallidine (DesArg10,Leu9); for inhibition at 10 µM: at 10 μgmol/L
# Description: Description of the Method of Binding the cynoBK1-Receptor
# CHO cells that express the cynomolgus BK1-receptor are cultivated in “HAM'S F-12 Medium”. The medium is removed from confluent cultures, the cells are washed with PBS buffer, scraped off or detached using Versene and isolated by centrifuging. Then the cells are homogenised in suspension, the homogenate is centrifuged and resuspended. After the protein content has been determined 200 μl of the homogenate (50 to 250 μg protein/assay) are incubated for 60-180 minutes at ambient temperature with 0.5 to 5.0 nM kallidine (DesArg10,Leu9), [3,4-Prolyl-3,43H(N)] and increasing concentrations of the test substance in a total volume of 250 μl. The incubation is stopped by rapid filtration through GF/B glass fibre filters that have been pre-treated with polyethyleneimine (0.3%). The radioactivity bound to the protein is measured with a TopCount NXT. The radioactivity bound in the presence of 1.0 μM kallidine (DesArg10) is defined as non-specific binding. The concentration binding curve may be analysed using computer-aided non-linear curve fitting to determine the corresponding Ki value for the test substance.
# Test results of the cynoBK1-receptor binding assay: […]
Structure (SMILES),Ki,inhibition at 10 µM
Cc1cc(Nc2ccc(F)cc2C(F)(F)F)cnc1CNC(=O)[C@]1(NC(=O)c2cncnc2)CCOC1 [(324)],22 nM,
CCNC(=O)NC1(C(=O)NCc2ccc(Nc3ccccc3C(F)(F)F)cc2)CC1 [(108)],135 nM,101%
Cc1nc(N)sc1C(=O)NC1(C(=O)NCc2ccc(Nc3ccc(F)cc3C(F)(F)F)cn2)CC1 [(186)],,82%
CN(c1ccc(CNC(=O)C2(NC(=O)c3cncnc3)CC2)cc1)c1ccccc1Cl [(110)],,33%
COc1cccc(C(=O)N[C@@]2(C(=O)NCc3ccc(Nc4ccccc4C(F)(F)F)cc3)CCOC2)c1 [(100)],,103%
O=C(NC1(C(=O)NCc2ccc(Nc3ccc(Cl)cc3C(F)(F)F)cn2)CC1)c1ccnc(O)c1 [(207)],84 nM,
O=C1CCC(C(=O)N[C@@]2(C(=O)NCc3ccc(Nc4ccccc4C(F)(F)F)cc3)CCOC2)C1 (stereo partly drawn) [(78)],,73%
Nc1ccc(C(=O)N[C@@]2(C(=O)NCc3ccc(Nc4ccccc4C(F)(F)F)cc3)CCOC2)cn1 [(57)],77 nM,111%
O=C(NC1(C(=O)NCc2ccc(Nc3ccc(F)cc3Cl)cn2)CC1)c1cncnc1 [(190)],,91%
COc1ncc(C(=O)N[C@@]2(C(=O)NCc3ncc(Nc4c(F)cccc4C(F)(F)F)cc3Cl)CCOC2)cn1 [(258)],37 nM,
CN(C)CCCC(=O)NC1(C(=O)NCc2ccc(Nc3ccccc3C(F)(F)F)cc2)CC1 [(6)],,59%
CN(C)c1ccc(C(=O)NC2(C(=O)NCc3ccc(Nc4ccc(Cl)cc4C(F)(F)F)cn3)CC2)cn1 [(263)],485 nM,
O=C(NC1(C(=O)NCc2ccc(Nc3ccc(OCC(F)F)cc3C(F)(F)F)cc2)CC1)c1cncnc1 [(118)],64 nM,109%
COc1cc(C(=O)NC2(C(=O)NCc3ccc(Nc4ccc(Cl)cc4C(F)(F)F)cn3)CC2)on1 [(356)],22 nM,

# The remaining lines, values ahead:
Ki,inhibition at 10 µM,Structure (SMILES)
4 nM,,Cc1ncc(C(=O)N[C@@]2(C(=O)NCc3ccc(Nc4ccc(F)cc4C(F)(F)F)cc3F)CCOC2)cn1 [(274)]
21 nM,,O=C(NC1(C(=O)NCc2ccc(Nc3ccc(F)cc3C(F)(F)F)cn2)CC1)c1cnc2[nH]ccc2c1 [(384)]
13 nM,,Nc1cncc(C(=O)N[C@@]2(C(=O)NCc3ccc(Nc4ccc(F)cc4C(F)(F)F)cc3)CCOC2)c1 [(214)]
8.4 nM,,Nc1ccc(C(=O)NC2(C(=O)NCc3ccc(Nc4ccc(F)cc4C(F)(F)F)cn3)CC2)cn1 [(244)]
11 nM,,O=C(N[C@@]1(C(=O)NCc2ccc(Nc3ccc(F)cc3C(F)(F)F)cc2)CCOC1)c1cncnc1 [(287)]
0.7 nM,115%,COc1ccc(Nc2ccc(CNC(=O)C3(NC(=O)c4cncnc4)CC3)nc2)c(C(F)(F)F)c1 [(50)]
6.3 nM,113%,CC(NC(=O)C1(NC(=O)c2cncc(N)c2)CC1)c1ncc(Nc2c(F)cccc2C(F)(F)F)cc1F (stereo not drawn) [(122)]
7.8 nM,,O=C(N[C@@]1(C(=O)NCc2ncc(Nc3ccc(F)cc3C(F)(F)F)cc2Cl)CCOC1)c1cncnc1 [(216)]
2 nM,,Cc1cc(Nc2ccc(F)cc2C(F)(F)F)cnc1CNC(=O)C1(NC(=O)c2cncnc2)CC1 [(306)]
11 nM,107%,Nc1cncc(C(=O)NC2(C(=O)NCc3ccc(Nc4ccc(Br)cc4C(F)(F)F)cn3)CC2)c1 [(178)]
9.3 nM,,Cc1cc(C(=O)NC2(C(=O)NCc3ccc(Nc4ccc(F)cc4C(F)(F)F)cn3)CC2)cnc1N [(391)]
20 nM,113%,Nc1cncc(C(=O)N[C@@]2(C(=O)NCc3ccc(Nc4ccccc4C(F)(F)F)cc3)CCOC2)c1 [(105)]
2 nM,113%,CC(NC(=O)C1(NC(=O)c2cncnc2)CC1)c1ncc(Nc2c(F)cccc2C(F)(F)F)cc1F (stereo not drawn) [(121)]
19 nM,99%,Cc1ncc(C(=O)NC2(C(=O)NCc3ccc(Nc4ccc(F)cc4C#N)cc3)CC2)cn1 [(181)]
6.7 nM,107%,COc1ncc(C(=O)NC2(C(=O)NCc3ccc(Nc4ccc(Br)cc4C(F)(F)F)cn3)CC2)cn1 [(138)]
